Columns and labels:
[1] = system: antigen-induced bronchoconstriction; assay: In vivo screening procedure for SRS-A synthesis inhibitors in guinea pigs; conditions: 10 mg/kg i.v., 1 minute prior to antigen challenge
Source text: Paralyzed, artificially ventilated, actively sensitized guinea pigs are pretreated with indomethacin (to divert the flow of endogenous arachidonic acid through the lipoxygenase pathway), pyrilamine maleate (to block any bronchoconstriction due to released histamine) and propranol (to enhance the sensitivity of the guinea pig bronchoconstriction to SRS-A) prior to challenging the animal with antigen. Under these conditions the resulting antigen-induced bronchoconstriction has been characterized as being attributable to the synthesis and release of SRS-A in the guinea pig lung. Test compounds are initially studies for their inhibitory properties in this test system by the intravenous route (at 10 mg/kg) given 1 minute prior to antigen challenge.

TXA2 synthase = biological target: T1, TXA2 synthase (Homo sapiens, UniProt P24557); assay: Thromboxane synthase inhibition, in vitro; assay type: biochemical; conditions: at 10^-7M; microsomal fractions from human platelets; read-out: TXA2Synthase Inhibition (% at 10^-7M)
T1 construct: using microsomal fractions from human platelets as enzyme source; from tissue; host or cells: human platelets (microsomal fraction)
T1 sequence (P24557 1-533): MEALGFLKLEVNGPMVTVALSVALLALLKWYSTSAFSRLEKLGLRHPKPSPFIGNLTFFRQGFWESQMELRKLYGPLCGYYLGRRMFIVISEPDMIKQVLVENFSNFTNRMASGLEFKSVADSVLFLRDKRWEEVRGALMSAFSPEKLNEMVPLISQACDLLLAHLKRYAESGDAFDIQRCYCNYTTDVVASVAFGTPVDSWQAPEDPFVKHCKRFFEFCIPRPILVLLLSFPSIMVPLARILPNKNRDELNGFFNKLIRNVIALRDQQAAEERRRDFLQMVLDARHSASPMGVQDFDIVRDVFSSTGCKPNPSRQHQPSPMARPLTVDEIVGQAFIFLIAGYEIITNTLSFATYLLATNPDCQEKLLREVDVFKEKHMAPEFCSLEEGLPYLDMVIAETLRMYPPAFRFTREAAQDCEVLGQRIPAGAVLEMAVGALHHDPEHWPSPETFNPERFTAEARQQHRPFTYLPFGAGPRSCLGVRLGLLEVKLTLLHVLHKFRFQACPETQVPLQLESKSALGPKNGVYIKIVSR
Method: TXA2 synthase activity is measured by following the conversion of ^14C-prostaglandin endoperoxide (PGH2) to ^14C-thromboxane A2 (TXA2) using microsomal fractions from human platelets as enzyme source. In the aqueous incubation medium, the TXA2 decomposes rapidly into TXB2. The amount of TXA2 synthase is adjusted so that under the conditions of the assay approximately 80-90% of the substrate, PGH2, is converted to product in control tubes. To prepare ^14C-PGH2, ^14C-AA (50-60 mCi/mmole: Rose Chem.) is incubated with sheep seminal vesicular gland microsomes for 1.5 minutes at 37°C and then the ^14C-PGH2 is extracted with diethylether, purified on columns of Sephadex LH-20 or silicic acid, and stored in acetone at -70°C. Incubations are done as follows. Sufficient ^14C-PGH2 to yield a final substrate concentration of 10 µM (30,000 cpm) is added to the incubation tubes and then the acetone is removed under nitrogen. The tubes are placed in an ice bath and then 215 1 of ice cold phosphate buffered saline, 10 1 of ethanol (control) or of test drug in ethanol, and 25 1 of the microsomal suspension are added with mixing in that order as rapidly as possible. The tubes are incubated at 22°C for 2 minutes, the reaction is stopped and then the radioactive products and the uncoverted PGH2 are extracted and analyzed by thin layer chromatography. […] The amount of ^14C-PGH2 converted to products was used as a measure of TXA2 synthase activity. Inhibitors were tested initially at a final concentration of 100 µM. Results obtained with representative compounds of the present invention in this assay are summarized hereafter in Table I.

| inhibition at 0.1 µM (TXA2 synthase) [%] | SMILES | inhibition of the bronchoconstriction [1] [%] |
| --- | --- | --- |
| – | CC(C)c1ccc2nc3sc(C(=O)NCCCCc4ccccn4)cn3c(=O)c2c1 [Example 11] | 44 |
| 36 | CC(C)c1ccc2nc3sc(C(=O)NCCCCCCc4cccnc4)cn3c(=O)c2c1 | – |

Source: patent EP0142057A2, “Thiazoloquinazoline derivatives, their preparation and pharmaceutical compositions containing same” (F. HOFFMANN-LA ROCHE AG, priority 1983, dated 1985)
